The structures appear in SMILES notation. The source made the active and inactive calls.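 How the source made its calls: active means compounds whose peak USP7 inhibition across the dose series reached 30% or more; inactive means the rest.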 Some results are limits rather than exact numbers.

Sequence of Ubiquitin carboxyl-terminal hydrolase 7 (Homo sapiens) (Q93009 whole entry, looked up): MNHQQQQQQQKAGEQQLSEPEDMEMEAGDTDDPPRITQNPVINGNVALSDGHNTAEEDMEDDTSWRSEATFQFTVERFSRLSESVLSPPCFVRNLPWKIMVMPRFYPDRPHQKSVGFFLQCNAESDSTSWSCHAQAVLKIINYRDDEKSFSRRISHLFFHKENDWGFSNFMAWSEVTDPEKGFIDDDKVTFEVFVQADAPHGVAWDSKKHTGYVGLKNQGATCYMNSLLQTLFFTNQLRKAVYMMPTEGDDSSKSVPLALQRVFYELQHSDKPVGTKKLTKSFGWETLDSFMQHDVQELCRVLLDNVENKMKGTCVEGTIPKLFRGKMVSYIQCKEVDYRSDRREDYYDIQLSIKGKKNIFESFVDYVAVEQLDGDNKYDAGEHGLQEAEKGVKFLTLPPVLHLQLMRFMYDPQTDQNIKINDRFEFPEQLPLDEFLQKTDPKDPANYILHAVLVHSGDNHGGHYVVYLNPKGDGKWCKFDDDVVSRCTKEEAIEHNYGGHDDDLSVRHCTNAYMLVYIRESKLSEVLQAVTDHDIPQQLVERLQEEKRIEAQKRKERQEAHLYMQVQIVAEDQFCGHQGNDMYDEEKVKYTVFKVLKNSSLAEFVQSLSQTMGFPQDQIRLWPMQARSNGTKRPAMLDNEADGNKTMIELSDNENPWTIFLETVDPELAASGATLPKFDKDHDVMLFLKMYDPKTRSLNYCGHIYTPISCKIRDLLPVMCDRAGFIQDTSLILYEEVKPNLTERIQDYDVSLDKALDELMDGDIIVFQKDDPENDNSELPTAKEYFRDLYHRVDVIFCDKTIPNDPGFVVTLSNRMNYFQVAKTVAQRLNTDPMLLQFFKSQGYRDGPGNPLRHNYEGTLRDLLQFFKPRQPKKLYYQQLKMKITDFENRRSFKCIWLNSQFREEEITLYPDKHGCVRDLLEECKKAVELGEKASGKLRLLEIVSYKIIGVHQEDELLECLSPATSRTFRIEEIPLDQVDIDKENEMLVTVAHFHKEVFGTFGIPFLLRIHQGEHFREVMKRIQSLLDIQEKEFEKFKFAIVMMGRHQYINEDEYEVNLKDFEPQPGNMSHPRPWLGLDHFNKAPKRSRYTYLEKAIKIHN

This test concerns the target Ubiquitin carboxyl-terminal hydrolase 7 (Homo sapiens) (UniProt Q93009). The test can be described thus: Biochemical concentration-response for ubiquitin-specific peptidase 7 DUB inhibitors, verifying primary hits (AID 1645861). The settings on record: purified USP7, Ub-rhodamine cleavage fluorescence, 60 min.
In the case of `O=C(Nc1ccc(F)cc1)Nc1ccccc1OCc1cc(=O)n2ccccc2n1`, the IC50 was > 50 µM (inactive).
With `CCC(=O)Nc1cccnc1-c1ccc(C(=O)Nc2ccc3c(c2)OCO3)cc1`, the IC50 is > 50 µM (inactive).
In the case of `O=C(Nc1ccc(-c2cn3ccsc3n2)cc1)c1ccc(Cl)c([N+](=O)[O-])c1` it was 39.5 µM.
Consider `CCCCN1Cc2sc(NC(=O)Nc3ccccc3C)nc2C1=O`, for which the IC50 was > 50 µM (inactive).
With `Cc1cc(C)cc(NC(=O)Nc2ccccc2OCc2cc(=O)n3c(ncn3C(C)C)n2)c1`, the IC50 was > 50 µM (inactive).
Then `Cc1cc(NC(=O)Cn2c(=O)n(Cc3ccco3)c(=O)c3ccc(C(=O)NCCc4ccccc4)cc32)n[nH]1`, with > 50 µM (inactive); and `Cc1nnc(NC(=O)C2CCN(c3ccc(S(N)(=O)=O)cc3[N+](=O)[O-])CC2)o1`, with 49.4 µM; and `COC(=O)c1ccc(Nc2cc(C)nc3cc(C(F)(F)F)ccc23)cc1`, with > 50 µM (inactive).
In the case of `Cc1ccc(NC(=O)Cc2nnc3cc(-c4nc(C)no4)ccn23)cc1` it was 45.4 µM; in that of `COc1cccc(NC(=O)C(Sc2cccc(NC(=O)c3ccccc3F)c2)c2ccccc2)c1` (centres undefined), > 50 µM (inactive); in that of `Nc1ccc(C(=O)OCC(=O)NC2CCCc3ccccc32)cc1[N+](=O)[O-]` (centres undefined), > 50 µM (inactive).
Take `O=C(COC(=O)c1ccc(NS(=O)(=O)c2ccc(F)c(F)c2)cc1)Nc1ccc(OCc2ccccc2)cc1`: the IC50 is > 50 µM (inactive).
Then `O=C(Nc1ccccc1F)c1nc(-c2cn(-c3ccc(F)cc3)nn2)no1`, with > 50 µM (inactive); and `O=C(c1ccco1)N1CCC2(CC1)CC1(CO2)Nc2ccccc2-n2cccc21` (centres undefined), with > 50 µM (inactive); and `CCOC(=O)c1ccc(NC(=O)Cn2c(=O)n(-c3ccc(CC(=O)NCc4ccco4)cc3)c(=O)c3ccccc32)cc1`, with > 50 µM (inactive).
For `COc1cc(Cl)c(NC(=O)C2Cc3ccccc3N2C(=O)c2ccccc2)c(OC)c1` (centres undefined), the IC50 is > 50 µM (inactive).
Then `CCc1nc(SCC(=O)Nc2ccc(Cl)c(Cl)c2)c2oc3ccccc3c2n1`, with > 50 µM (inactive).
In the case of `CC(C)Cc1ccc(-c2cc(-c3ccc(C(F)(F)F)cc3)c(C#N)c(=O)[nH]2)cc1`, the IC50 was > 50 µM (inactive).
In the case of `COc1ccc(/C=C/C(=O)Nc2cccc(S(=O)(=O)Nc3ccccc3Cl)c2)c(OC)c1`, the IC50 is > 50 µM (inactive).
In the case of `CCc1noc(-c2ccn3c(CC(=O)Nc4ccccc4C)nnc3c2)n1`, the IC50 is > 50 µM (inactive).
Turning to `O=C1CC(c2nc3ccccc3n2CCOc2ccc(Cl)cc2)CN1c1ccccc1` (centres undefined), the IC50 was > 50 µM (inactive).
In the case of `O=C1NC(=O)/C(=C/c2ccc(OC(=O)c3ccc(Cl)cc3Cl)cc2)N1`, the IC50 was > 50 µM (inactive).
On to `O=C(Nc1cccc([N+](=O)[O-])c1)Nc1ccc2snnc2c1`, for which the IC50 is 17.7 µM.
In the case of `Cc1ccc(Nc2nc3c(S(=O)(=O)c4ccccc4)nnn3c3ccccc23)c(C)c1`, the IC50 is 48 µM.
In the case of `CC(=O)N1CCc2cc(S(=O)(=O)NC(Cc3ccccc3)C(=O)Nc3cccc(Cl)c3C)ccc21` (centres undefined) it was > 50 µM (inactive); in that of `Cc1cc(=O)n2c3c(c4c(cc13)c(CO)cc(=O)n4C)OC2`, > 50 µM (inactive).
For `CCCCCCCCCCCCCCCc1cc(O)cc(O)c1C(=O)O`, the IC50 is 30.7 µM.
`CCn1cc2c(n1)c(=O)n(Cc1ccccc1)c(=O)n2CC(=O)Nc1ccc(C(C)C)cc1`: the IC50 is > 50 µM (inactive).
Turning to `Nc1c(C(=O)NCc2ccc3c(c2)OCO3)nnn1Cc1ccc(Br)cc1F`, the IC50 is > 50 µM (inactive).
Take `O=c1c2[nH]c3ccccc3c2ncn1Cc1ccncc1`: the IC50 is > 50 µM (inactive).
As to `Cc1ccc(NC(=O)CSc2nnc(-c3n[nH]c4c3CCC4)n2N)cc1C`, the IC50 is > 50 µM (inactive).
As for `C=C1C=C(CCC(=O)O)C(=O)OC1/C=C/C=C/C` (centres undefined), the IC50 was 18.2 µM.
For the compound `O=C1c2c(O)c(Cl)cc3c2[C@@]2(Oc4ccc(O)c5c4[C@]3(O2)[C@@H]2O[C@@H]2C5=O)[C@@H]2O[C@H]12`, the IC50 was 16.3 µM.
Consider `O=C(CCc1ccc(S(=O)(=O)N2CCOCC2)cc1)OCC(=O)c1ccc(-c2ccccc2)cc1`, for which the IC50 is > 50 µM (inactive).
With `Cc1ccc2nc(CNc3ccc(F)cc3C)cc(=O)n2c1`, the IC50 is > 50 µM (inactive).
In the case of `Cc1ccc(-n2cc(C(=O)NCCCc3ccccc3)nn2)cc1` it was > 50 µM (inactive); in that of `CC1CCCN(S(=O)(=O)c2ccc(-n3cnc(C(=O)NC4CC4)c3)nc2)C1` (centres undefined), > 50 µM (inactive); in that of `CC1OC2CC(O)C1(O)C1=C2C(O)=C(C(N)=O)C(=N)C1=O` (centres undefined), > 50 µM (inactive).
With `CCN(CC)Cc1ccc(-c2nnc(-c3cnc4onc(C)c4c3)o2)o1`, the IC50 is > 50 µM (inactive).
On to `COc1ccc(OCCn2c(C3CC(=O)N(c4cccc(C)c4)C3)nc3ccccc32)cc1` (centres undefined), for which the IC50 was > 50 µM (inactive).
In the case of `COc1ccc(Nc2nc3c(S(=O)(=O)c4ccc(C)cc4)nnn3c3ccsc23)c(OC)c1` it was > 50 µM (inactive); in that of `CC(C)=CCC/C(C)=C/COc1ccc(/C=C2\C(=O)N(O)[C@@H](C)C(=O)N2O)cc1`, > 50 µM (inactive).
Consider `COc1ccc(CC(=O)Nc2ccccc2-c2nc3ccccc3[nH]2)cc1OC`, for which the IC50 was > 50 µM (inactive).
As to `O=C(Nc1cccc(Br)c1)c1cc(-c2cccnc2)n[nH]1`, the IC50 is 48.7 µM.
For the compound `COc1cccc(NC(=O)Cn2cc(C(=O)c3ccc(C)cc3)c(=O)c3cc(Cl)ccc32)c1`, the IC50 was > 50 µM (inactive).
Take `Cc1cccc(OCCn2c(CCNC(=O)C3CCCCC3)nc3ccccc32)c1`: the IC50 was > 50 µM (inactive).
Then `O=C(Cn1c(=O)c2ccccc2n(CC(=O)Nc2ccc(Br)cc2)c1=O)NCc1ccco1`, with > 50 µM (inactive).
Take `COc1ccc(NS(=O)(=O)c2cc(NC(=O)CC(=O)c3ccc([N+](=O)[O-])cc3)ccc2Cl)cc1`: the IC50 was > 50 µM (inactive).
In the case of `COC(=O)c1ccc2c(=O)n(CCCCCC(=O)NCCc3ccccc3Cl)c(=O)[nH]c2c1` it was > 50 µM (inactive); in that of `CCCC(O)CCCCCCCc1cc(O)cc(O)c1C(=O)OC(CCC)CCCCCCCc1cc(O)cc(O)c1` (centres undefined), > 50 µM (inactive).
On to `Cc1ccc(C)c(NC(=O)Cn2cc(C(=O)C3CC3)c3ccccc32)c1`, for which the IC50 is 40.6 µM.
Take `Cn1cc(NC(=O)Nc2cccc(C(F)(F)F)c2)c2ccccc2c1=O`: the IC50 was > 50 µM (inactive).
`Cn1c2ccccc2c(=O)c2c(=O)n(Cc3ccco3)c(-c3ccccc3F)nc21`: the IC50 is > 50 µM (inactive).
For the compound `O=C(NCc1ccc2c(c1)OCO2)c1cc2c(s1)CCC2`, the IC50 was > 50 µM (inactive).
Regarding `COc1cccc2cc(C(=O)Nc3nc(-c4ccncc4)cs3)oc12`, the IC50 is 18.3 µM.
Then `COc1ccccc1CNC(=O)CCCCn1c(=O)c2ccccc2n(CC(=O)Nc2ccc(C)cc2C)c1=O`, with > 50 µM (inactive); and `CCC1OC(O)(C(C)C(O)C(C)C2OC(=O)/C(C)=C/C(C)=CC(C)C(O)C(C)C/C(C)=C/C=C/C2OC)CC(OC(=O)/C=C/C(=O)NC2=C(O)CCC2=O)C1C` (centres undefined), with 23.2 µM; and `CN(C)[C@@H]1C(=O)C(C(N)=O)=C(O)[C@@]2(O)C(=O)C3=C(O)c4c(O)cccc4[C@@](C)(O)C3[C@H](O)[C@@H]12` (some centres undefined), with 6.37 µM.
In the case of `O=C(Cn1c(=O)n(CC2CCC(C(=O)NCCc3ccccc3)CC2)c(=O)c2ccccc21)NCc1ccco1` (centres undefined) it was > 50 µM (inactive).
Then `COc1ccc(-c2nc3c(c(=O)c4ccccc4n3C)c(=O)n2Cc2ccco2)cc1`, with 46.9 µM; and `O=C(Nc1cccc(Cl)c1)c1ncn2c1CNS(=O)(=O)c1ccccc1-2`, with > 50 µM (inactive); and `CCOc1cccc(-c2noc(-c3nn(-c4ccccc4)ccc3=O)n2)c1`, with > 50 µM (inactive).
With `COc1ccc(-c2cc(-c3ccc(F)cc3)[nH]c(=O)c2C#N)cc1`, the IC50 is > 50 µM (inactive).
With `Cc1ccc(Cn2cc(C(=O)Nc3ccccc3C(N)=O)ccc2=O)cc1`, the IC50 is > 50 µM (inactive).
Then `O=C(Cn1c(-c2ccccc2)ncc(C(=O)NC2CC2)c1=O)Nc1ccccc1`, with > 50 µM (inactive).
Regarding `O=C(O)CCCCCN1C(=O)CC(c2ccc(Cl)cc2)CC1=O`, the IC50 is > 50 µM (inactive).
In the case of `COc1ccc(NC(=O)Cn2c(=O)n(CCCC(=O)NC3CCCC3)c(=O)c3cc(Cl)ccc32)c(OC)c1` it was > 50 µM (inactive); in that of `COc1ccccc1N1CCN(C(=O)c2ccc3c(=O)n(CCc4ccccc4)c(=O)[nH]c3c2)CC1`, > 50 µM (inactive).
Then `COc1cc2c(=O)n(CCC(=O)NC3CCCC3)c(=O)n(CC(=O)Nc3cccc(Cl)c3)c2cc1OC`, with > 50 µM (inactive).
In the case of `Cc1ccc(Nc2nc(O)c(CC(=O)Nc3cccc(Cl)c3C)s2)cc1C` it was > 50 µM (inactive); in that of `Cc1ccc(NCc2cc3c(-c4cccc(F)c4)nn(-c4ccccc4)c3[nH]c2=O)cc1C`, 9 µM.
Turning to `O=C1CSC(c2ccc3c(c2)OCO3)c2c(n(C3CCCCCC3)[nH]c2=O)N1` (centres undefined), the IC50 is > 50 µM (inactive).
For `Cc1ccc(NC(=O)Cn2c(=O)n(CC(=O)NCCc3ccccc3)c(=O)c3sccc32)cc1C`, the IC50 is > 50 µM (inactive).
`COc1cc(O)cc2c1C(=O)OC(C)CCCCCCC2` (centres undefined): the IC50 is > 50 µM (inactive).
In the case of `COc1ccc(Cl)cc1NC(=O)c1nc(-c2cn(-c3ccccc3)nn2)no1`, the IC50 was > 50 µM (inactive).
Consider `O=C(Nc1ccccc1)[C@@H]1[C@@H]2C(=O)N(c3ccc([N+](=O)[O-])cc3)C(=O)[C@@H]2[C@H]2c3ccccc3C=CN12`, for which the IC50 was > 50 µM (inactive).
Regarding `COc1ccc(OC)c(NC(=O)Cn2c(=O)n(C3CCCCC3)c(=O)c3ccccc32)c1`, the IC50 was > 50 µM (inactive).
Then `COc1cc2cc3c(c(O)c2c(O)c1-c1c(OC)cc2cc4c(c(O)c2c1O)C(=O)OC1CC(C)OC41)C(=O)OC1CC(C)OC31` (centres undefined), with > 50 µM (inactive).
In the case of `Cn1c(CCNC(=O)c2[nH]nc3c2CCc2ccccc2-3)nc2ccccc21`, the IC50 was > 50 µM (inactive).

One may read the IC50 as the point on the concentration scale where inhibition reaches its midpoint.

These data come from PubChem BioAssay AID1645861 (Buhrlage Lab, Dana-Farber Cancer Institute and Novartis …, 2021).
